According to patent US20100146646A1, “METHOD OF MONITORING RETINOPATHY” (priority 2007, published 2010):
Entries after “also recorded” stand apart in the source; their conditions may differ.

Experiments:
[1] = tested on: transgenic GFAP-GFP mice (SNpc and striatum); assay: Brain cryosections: tyrosine hydroxylase (TH) immunohistochemistry; type: in vivo, mouse; settings: a day after administration, vs saline
Experimental: (§1) The test compounds 2′-CH3-MPTP (M103), KA (K0250) and IDPN (317306) were purchased from Sigma-Aldrich (St. Louis, Mo., USA). Each mouse in the treatment group received either 4 intraperitoneal (ip) injections of 2′-CH3-MPTP (15 mg/kg in saline, ip, once every 2 hours), a single injection of KA (25 mg/kg in saline, ip) or 3 injections of IDPN (500 mg/kg, ip, once daily). For each neurotoxicant-treated group (n=3), saline was used as a vehicle for the control group (n=3). Retinal imaging was subsequently performed over a period of 14 days.
(§2) Retina wholemount and immunohistochemistry (IHC): After perfusing the mice with 1×PBS, followed by 4% fresh paraformaldehyde (in 1×PBS, pH 7.4), the brains were harvested and the eyes enucleated. The eyes were fixed immediately in 4% paraformaldehyde overnight at 4° C., after which they were dissected at the equator with the lens and vitreous removed. The retina was then dissected free from the choroid and sclera and whole mounted on a glass slide. Whole retina was mounted with Vectorshield mounting medium for fluorescence (Vector Laboratories, Inc., Burlingame, Calif., USA; H1000). The brains were first fixed in 4% paraformaldehyde for 4 hr at 4° C. and soaked in 30% sucrose at 4° C. overnight. The processed brain tissues were embedded in OTC freezing medium for sectioning on a cryostat (Leica Microsystems, Nussloch GmbH; CM-3050S). […]

[2] = tested on: transgenic GFAP-GFP mice (glia of optic disc and central retina); assay: In vivo scanning laser opthalmoscope (SLO) imaging of GFP fluorescence in the optic disc after neurotoxicant injection; set-up: species or system mouse; settings: for time point of maximum GFP fluorescence around the fringe of the optic disc: adult GFAP-GFP mice, ip neurotoxicant, SLO imaging over 14 days; for retinal gliosis: neurotoxicant-treated GFAP-GFP mice, summary statement
Excerpt: Transgenic GFAP-GFP mice: The generation and genotyping of the transgenic GFAP-GFP mice were done as previously described (Zhuo et al., 1997). Adult mice (8-10 weeks old) in the FVB/N background were used in the present study. Animal husbandry was provided by National University of Singapore animal holding unit. The experimental protocol covering the current study was approved by the Institutional Animal Care and Use Committee.
as §1
Preparation of Animals: Mice were Anaesthetized by Ip Injections with 0.15 ml/10 g body weight of Avertin (1.5% 2,2,2-tribromoethanol; T48402) purchased from Sigma-Aldrich (St. Louis, Mo., USA), and their pupils dilated with a drop of 0.5% Cyclogyl® sterile ophthalmic solution (cyclopentolate hydrochloride, Alcon®, Puurs, Belgium). Custom-made PMMA hard contact lenses (from Cantor & Nissel (Northamptonshire, UK) were used to correct optical aberration and to avoid dehydration of the mouse eyes. Careful examination by an eye specialist before scanning laser opthalmoscope imaging ruled out the presence of any corneal or lens opacities.
Scanning laser opthalmoscope (SLO) imaging: For the work described here, the second version of Heidelberg Retina Angiograph (HRA II) scanning laser opthalmoscope (Heidelberg Engineering, Dossenheim, Germany) modified for use on mice was employed. The scanning laser opthalmoscope (SLO) is a fundus imaging technique based on the scanning of the fundus with a laser beam from a point source, while the reflected light is detected by a photomultiplier. Incident and reflected light follow a co-axial path. Therefore, more light can pass through small eyes than with conventional fundus cameras. Several reports of SLO imaging in rats (Hossain et al., 1998; Khoobehi and Peyman, 1999; Cordeiro et al., 2004; Genevois et al., 2004) and mice (Jaissle et al., 2001; Xu et al., 2003) have been published, with the latest study by (Seeliger et al., 2005) and (Paques et al., 2006) in evaluating mouse fundus with the first version of the HRA (or HRA I). The HRA II features the two Argon lasers in the short wavelength range (488 nm and 514 nm) and two infrared diode lasers in the long wavelength range (795 nm and 830 nm). The 488 and 795 nm lasers are used for fluorescein and indocyanine green angiography respectively. Appropriate barrier filters of 500 nm and 800 nm, respectively, remove the reflected light with unchanged wavelength and allow only the light emitted by the dye upon stimulation to pass through. The finest definition is 768×768 pixels at an optical resolution of 10 μm/pixel and coupled with three fields of view (nominal values of 15°, 20° and 30°). The focus is adjustable over a +12/−12 diopters range using step increments of 0.25 diopters. A video acquisition mode (48 ms to 96 ms per image) is available. Within any area of interest, a stack of tomographic images (z-scans) up to a maximum depth of 8 mm can be automatically acquired.

[3] = tested on: transgenic GFAP-GFP mice (hippocampus, substantia nigra, striatum, olfactory bulb); assay: Brain cryosections: transgenic GFP and GFAP immunohistochemistry (gliosis); type: in vivo, mouse
Experimental: as §1
Retina wholemount and immunohistochemistry (IHC): After perfusing the mice with 1×PBS, followed by 4% fresh paraformaldehyde (in 1×PBS, pH 7.4), the brains were harvested and the eyes enucleated. The eyes were fixed immediately in 4% paraformaldehyde overnight at 4° C., after which they were dissected at the equator with the lens and vitreous removed. The retina was then dissected free from the choroid and sclera and whole mounted on a glass slide. Whole retina was mounted with Vectorshield mounting medium for fluorescence (Vector Laboratories, Inc., Burlingame, Calif., USA; H1000). The brains were first fixed in 4% paraformaldehyde for 4 hr at 4° C. and soaked in 30% sucrose at 4° C. overnight. The processed brain tissues were embedded in OTC freezing medium for sectioning on a cryostat (Leica Microsystems, Nussloch GmbH; CM-3050S). Coronal cryosections (10 μm) of the hippocampus (bregma −1.94 mm, interaural 1.86 mm), SNpc (bregma −3.16 mm, interaural 0.64 mm) and olfactory bulb (bregma 4.28 mm, interaural 8.08 mm) according to the Atlas of Mouse Brain (Franklin and Paxinos, 2001), together with the retina wholemounts were used for IHC using rabbit polyclonal antibodies (in 1:200 dilution) against GFAP (Dako, Z0334). Sections of the SNpc and striatum (bregma 0.62 mm, interaural 4.42 mm) were used for IHC using rabbit polyclonal antibodies (in 1:200 dilution) against tyrosine hydroxylase (TH; Chemicon, Calif., USA; Ab-152). The bound primary antibodies on the tissue sections were stained with a goat IgG conjugated to Texas-red (Abeam, Ab7088) at 1:100 dilution for 2 hr at room temperature, and visualized using confocal microscopy (LSM 510 META, Carl Zeiss Microimaging GmbH, Jena Germany).

retinal Müller cells = settings: injected into the vitreous of the eye; cited from earlier work
[4] = tested on: transgenic GFAP-GFP mice (whole-mount retina); assay: Retina whole-mount: transgenic GFP and GFAP immunohistochemistry; type: in vivo, mouse; settings: 7 days after a single ip injection (25 mg/kg), vs saline
Experimental: as §1, §2

[5] = tested on: neuronal and glial cells in the retina; settings: cited from earlier work
[6] = a day after administration, vs saline
[7] = 7 days after administration, vs saline

**Q.** For `Cc1ccccc1C1=CCN(C)CC1` [2′-CH3-MPTP, 1-methyl-4(2′-methylphenyl)-1,2,3,6-tetrahydropyridine], which “TH-immunoreactive midbrain dopaminergic neurons in the SNpc” value [1] is on record?
**A.** observable tyrosine hydroxylase (TH) depletion; also recorded: marked depletion

**Q.** What about the “level of TH expression in the striatum” value [1] of the same compound?
**A.** no change in TH expression could be visually observed; also recorded: no detectable changes

**Q.** What about the “time point of maximum GFP fluorescence around the fringe of the optic disc” value (from here on “time point”) [2] of the same compound?
**A.** 1 days

**Q.** And the “time of maximal increase in GFP expression in the optic disc” value ([2]; after administration of the neurotoxicant (4 x 15 mg/kg ip))?
**A.** 24 h

**Q.** What about the retinal gliosis [2] of the same compound?
**A.** elicits retinal gliosis

**Q.** What about the “GFP / gliosis in striatal astrocytes” value [3, 6] of the same compound?
**A.** acute gliosis; also recorded: substantial GFP increase

**Q.** What about the “gliosis in the substantia nigra” value [3, 6] of the same compound?
**A.** gliosis occurs extensively

**Q.** And the “GFP and GFAP expression in activated astrocytes of the brain” value ([3]; a day after systemic administration)?
**A.** an increase in GFP and to a lesser extent, GFAP expression

**Q.** With `N#CCCNCCC#N` [IDPN, 3,3-iminodipropionitrile] as the compound, how does the “time point” value [2] read?
**A.** 7 days

**Q.** And the retinal gliosis [2]?
**A.** elicits retinal gliosis

**Q.** And the “gliosis / GFP-positive astrocytes co-localizing with GFAP-immunoreactive cells in the glomerular layer (GL) of the olfactory bulb” value ([3]; 7 days after administration (3 x 500 mg/kg ip), vs saline)?
**A.** acute gliosis; also recorded: markedly more GFP-positive astrocytes

**Q.** And the “GFAP-positive cells in the granular cell layer (GCL) of the olfactory bulb” value [3, 7]?
**A.** strong increase of GFAP-positive cells

**Q.** With `C=C(C)[C@H]1CN[C@H](C(=O)O)[C@H]1CC(=O)O` [KA, kainic acid] as the compound, how does the “GFAP in the retinal Müller cells” value (retinal Müller cells) read?
**A.** up-regulation of GFAP

**Q.** What about the “time point” value [2] of the same compound?
**A.** 7 days

**Q.** What about the retinal gliosis [2] of the same compound?
**A.** elicits retinal gliosis

**Q.** What about the “gliosis in the nerve fiber layer (NFL) of whole-mount retina (transgenic GFP and endogenous GFAP)” value [4] of the same compound?
**A.** severe gliosis

**Q.** And the “level of GFP and GFAP expression in the entire hippocampus area (CA1, CA3, dentate gyrus)” value ([3]; 7 days after administration, compared to saline control)?
**A.** extremely high level of GFP and GFAP expression

**Q.** And the “gliosis in astrocytes of the hippocampus (GFP and GFAP)” value [3, 7]?
**A.** severe reactive gliosis

**Q.** For `CN1CC=C(c2ccccc2)CC1` [MPTP, 1-methyl-4-phenyl-1,2,3,6-tetrahydropyrine], which “GFAP immunoreactivity of the glial cells of the retina” value ([5]; several days after injection) is on record?
**A.** increased

**Q.** And the “microglia in the inner outer retina” value ([5]; within a week after systemic injection in mice)?
**A.** microglia activation was observed
